According to US9242987B2, “Heterocyclyl pyrazolopyrimidine analogues as JAK inhibitors” (Cellzome Limited, priority 2009, dated 2016):

Columns and labels:
JAK2 = biological target: T1, JAK2 (Homo sapiens, UniProt O60674); assay: Kinobeads assay, JAK2; assay type: binding; conditions: mixed Molt4/Ramos cell lysate, dot blot detection
T1 construct: endogenous in cells; host or cells: Mixed Molt4/Ramos lysate (1:2)
Procedure, shortened: (§1)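 Competition pulldown: compound dilution series incubated 3 h in cold room with immobilized aminopyrido-pyrimidine beads and mixed Molt4/Ramos lysate (1:2, 10 mg/mL protein) in DP buffer pH 7.4 with NP40. Bead-bound JAK2/JAK3 eluted, quantified by antibody dot blot with infrared detection; IC50 from dose-response curves.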

JAK3 = biological target: T2, JAK3 (Homo sapiens, UniProt P52333); assay: Kinobeads assay, JAK3; assay type: binding; conditions: mixed Molt4/Ramos cell lysate, dot blot detection
T2 construct: endogenous in cells; host or cells: Mixed Molt4/Ramos lysate (1:2)
T2 sequence (P52333 1-1124): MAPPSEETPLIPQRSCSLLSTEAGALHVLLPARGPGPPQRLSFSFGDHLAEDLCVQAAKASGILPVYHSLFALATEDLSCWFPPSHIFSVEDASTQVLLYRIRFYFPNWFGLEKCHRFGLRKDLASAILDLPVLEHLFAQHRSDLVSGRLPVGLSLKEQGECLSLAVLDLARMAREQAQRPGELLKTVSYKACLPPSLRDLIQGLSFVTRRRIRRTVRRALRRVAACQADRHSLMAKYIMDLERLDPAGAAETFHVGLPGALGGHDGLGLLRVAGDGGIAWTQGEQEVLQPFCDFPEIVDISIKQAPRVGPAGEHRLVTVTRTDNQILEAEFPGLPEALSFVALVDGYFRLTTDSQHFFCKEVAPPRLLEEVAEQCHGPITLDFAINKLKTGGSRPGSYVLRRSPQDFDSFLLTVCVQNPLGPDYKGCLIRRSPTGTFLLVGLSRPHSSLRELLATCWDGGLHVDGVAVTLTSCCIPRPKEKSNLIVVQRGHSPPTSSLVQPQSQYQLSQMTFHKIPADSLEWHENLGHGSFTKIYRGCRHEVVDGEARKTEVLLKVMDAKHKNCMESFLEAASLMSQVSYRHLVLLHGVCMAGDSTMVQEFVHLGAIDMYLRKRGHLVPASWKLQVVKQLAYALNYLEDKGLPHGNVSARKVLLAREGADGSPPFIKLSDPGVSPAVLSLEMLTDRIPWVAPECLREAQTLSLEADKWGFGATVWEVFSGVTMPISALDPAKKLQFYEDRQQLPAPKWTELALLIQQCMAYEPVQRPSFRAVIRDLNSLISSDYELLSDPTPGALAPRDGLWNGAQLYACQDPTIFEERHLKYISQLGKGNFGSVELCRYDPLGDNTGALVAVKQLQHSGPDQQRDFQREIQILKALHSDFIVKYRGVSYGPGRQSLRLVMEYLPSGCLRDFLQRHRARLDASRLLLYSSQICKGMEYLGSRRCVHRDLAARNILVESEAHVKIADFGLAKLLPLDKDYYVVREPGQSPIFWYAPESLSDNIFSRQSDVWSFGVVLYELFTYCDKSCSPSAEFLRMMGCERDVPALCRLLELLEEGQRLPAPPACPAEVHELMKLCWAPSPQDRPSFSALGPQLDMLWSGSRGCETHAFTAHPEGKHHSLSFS
Procedure, shortened: as §1

T1 sequence (O60674 whole entry): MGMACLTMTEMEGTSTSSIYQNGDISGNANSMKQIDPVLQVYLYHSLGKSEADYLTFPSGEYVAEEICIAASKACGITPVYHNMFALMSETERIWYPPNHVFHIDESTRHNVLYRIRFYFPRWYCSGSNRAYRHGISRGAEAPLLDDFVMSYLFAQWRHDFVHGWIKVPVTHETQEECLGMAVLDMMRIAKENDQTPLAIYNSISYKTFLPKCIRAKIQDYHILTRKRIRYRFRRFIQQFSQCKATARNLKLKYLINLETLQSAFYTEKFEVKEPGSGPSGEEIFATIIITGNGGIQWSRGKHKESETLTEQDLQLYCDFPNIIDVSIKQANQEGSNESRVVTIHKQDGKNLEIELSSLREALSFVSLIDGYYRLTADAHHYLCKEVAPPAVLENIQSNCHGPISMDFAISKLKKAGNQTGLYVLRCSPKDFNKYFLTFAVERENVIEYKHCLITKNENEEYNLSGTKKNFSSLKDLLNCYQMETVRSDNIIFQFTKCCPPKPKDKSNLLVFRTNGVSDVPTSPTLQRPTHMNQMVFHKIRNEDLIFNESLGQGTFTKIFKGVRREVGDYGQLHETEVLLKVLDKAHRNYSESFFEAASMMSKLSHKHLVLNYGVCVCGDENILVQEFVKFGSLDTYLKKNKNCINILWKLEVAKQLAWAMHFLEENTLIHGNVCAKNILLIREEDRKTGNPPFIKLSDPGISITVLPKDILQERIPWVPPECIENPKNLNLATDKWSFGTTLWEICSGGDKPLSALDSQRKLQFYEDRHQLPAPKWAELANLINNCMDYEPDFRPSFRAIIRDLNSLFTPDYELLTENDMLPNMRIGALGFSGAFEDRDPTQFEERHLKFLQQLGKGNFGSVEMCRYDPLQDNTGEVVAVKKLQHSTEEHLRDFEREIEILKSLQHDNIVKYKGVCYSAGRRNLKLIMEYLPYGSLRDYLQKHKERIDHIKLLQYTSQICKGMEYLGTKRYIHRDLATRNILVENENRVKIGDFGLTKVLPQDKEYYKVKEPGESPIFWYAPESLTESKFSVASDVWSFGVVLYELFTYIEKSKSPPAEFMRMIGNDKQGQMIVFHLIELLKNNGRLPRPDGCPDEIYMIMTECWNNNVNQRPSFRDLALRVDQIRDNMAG

Row | SMILES | IC50 (JAK2) | IC50 (JAK3)
1 | CC(C)c1cccc(Cn2ncc3cnc(Nc4cnn(C)c4)nc32)c1 [Example 100, 1-(3-Isopropylbenzyl)-N-(1-methyl-1H-pyrazol-4-yl)-1H-pyrazolo[3,4-d]pyrimidin-6-amine] | ≥ 10000 nM | 100 to 1000 nM
2 | COCCOc1cccc(Cn2ncc3cnc(Nc4cnn(CC(F)F)c4)nc32)c1 [Example 176, N-(1-(2,2-Difluoroethyl)-1H-pyrazol-4-yl)-1-(3-(2-methoxyethoxy)benzyl)-1H-pyrazolo[3,4-d]pyrimidin-6-amine] | ≥ 10000 nM | 100 to 1000 nM
3 | Cn1nc(Nc2ncc3cnn(Cc4ccccc4F)c3n2)cc1C(=O)O [Example 236, 3-((1-(2-Fluorobenzyl)-1H-pyrazolo[3,4-d]pyrimidin-6-yl)amino)-1-methyl-1H-pyrazole-5-carboxylic acid] | ≥ 10000 nM | 100 to 1000 nM
4 | Cn1cc(Nc2ncc3cnn(CCc4ccccc4)c3n2)cn1 [Example 48, N-(1-Methyl-1H-pyrazol-4-yl)-1-phenethyl-1H-pyrazolo[3,4-d]pyrimidin-6-amine] | 1000 to 10000 nM | 100 to 1000 nM
5 | Cn1cc(Nc2ncc3cnn(-c4cccc(C(=O)N5CCOCC5)c4)c3n2)cn1 [Example 146, (3-(6-((1-Methyl-1H-pyrazol-4-yl)amino)-1H-pyrazolo[3,4-d]pyrimidin-1-yl)phenyl)(morpholino)methanone] | 1000 to 10000 nM | 100 to 1000 nM
6 | Cn1cc(Nc2ncc3cnn(Cc4cccc(C5=CCOCC5)c4)c3n2)cn1 [Example 218, 1-(3-(3,6-Dihydro-2H-pyran-4-yl)benzyl)-N-(1-methyl-1H-pyrazol-4-yl)-1H-pyrazolo[3,4-d]pyrimidin-6-amine] | ≥ 10000 nM | < 100 nM
7 | CNC(=O)Cn1cc(Nc2ncc3cnn(Cc4ccccc4)c3n2)cn1 [Example 133, 2-(4-((1-Benzyl-1H-pyrazolo[3,4-d]pyrimidin-6-yl)amino)-1H-pyrazol-1-yl)-N-methylacetamide] | 1000 to 10000 nM | < 100 nM
8 | Cn1cc(Nc2ncc3cnn(-c4ccc(C(N)=O)cc4)c3n2)cn1 [Example 135, 4-(6-((1-Methyl-1H-pyrazol-4-yl)amino)-1H-pyrazolo[3,4-d]pyrimidin-1-yl)benzamide] | 1000 to 10000 nM | 100 to 1000 nM
9 | Cc1nn(C)cc1Nc1ncc2cnn(Cc3ccccc3)c2n1 [Example 110, 1-Benzyl-N-(1,3-dimethyl-1H-pyrazol-4-yl)-1H-pyrazolo[3,4-d]pyrimidin-6-amine] | ≥ 10000 nM | 100 to 1000 nM
10 | COc1nn(C)cc1Nc1ncc2cnn(Cc3ccccc3)c2n1 [Example 105, 1-Benzyl-N-(3-methoxy-1-methyl-1H-pyrazol-4-yl)-1H-pyrazolo[3,4-d]pyrimidin-6-amine] | ≥ 10000 nM | < 100 nM
11 | Cn1cc(Nc2ncc3cnn(Cc4cccc(-c5ccnc(N)c5)c4)c3n2)cn1 [Example 206, 1-(3-(2-Aminopyridin-4-yl)benzyl)-N-(1-methyl-1H-pyrazol-4-yl)-1H-pyrazolo[3,4-d]pyrimidin-6-amine] | ≥ 10000 nM | 100 to 1000 nM
12 | Cc1c(O)cccc1Cn1ncc2cnc(Nc3cnn(C)c3)nc21 [Example 179] | 1000 to 10000 nM | < 100 nM
13 | Cn1cc(Nc2ncc3cnn(-c4ccccc4)c3n2)cn1 [Example 74, N-(1-Methyl-1H-pyrazol-4-yl)-1-phenyl-1H-pyrazolo[3,4-d]pyrimidin-6-amine] | 1000 to 10000 nM | 100 to 1000 nM
14 | Cc1c(Nc2ncc3cnn(Cc4ccccc4)c3n2)cnn1C [Example 109, 1-Benzyl-N-(1,5-dimethyl-1H-pyrazol-4-yl)-1H-pyrazolo[3,4-d]pyrimidin-6-amine] | ≥ 10000 nM | 100 to 1000 nM
15 | N#Cc1ccccc1Cn1ncc2cnc(Nc3cnn(CCO)c3)nc21 [Example 25, 2-((6-(1-(2-Hydroxyethyl)-1H-pyrazol-4-ylamino)-1H-pyrazolo[3,4-d]pyrimidin-1-yl)methyl)benzonitrile] | 1000 to 10000 nM | < 100 nM
16 | Cn1cc(Nc2ncc3cnn(Cc4ccccc4C(=O)O)c3n2)cn1 [Example 41, 2-((6-(1-Methyl-1H-pyrazol-4-ylamino)-1H-pyrazolo[3,4-d]pyrimidin-1-yl)methyl)benzoic acid] | 1000 to 10000 nM | 100 to 1000 nM
17 | Cc1c(F)cccc1Cn1ncc2cnc(Nc3cnn(CC(F)F)c3)nc21 [Example 154, N-(1-(2,2-Difluoroethyl)-1H-pyrazol-4-yl)-1-(3-fluoro-2-methylbenzyl)-1H-pyrazolo[3,4-d]pyrimidin-6-amine] | 1000 to 10000 nM | 100 to 1000 nM
18 | Cn1cc(Nc2ncc3cnn(Cc4c(F)cccc4F)c3n2)cn1 [Example 29, 1-(2,6-Difluorobenzyl)-N-(1-methyl-1H-pyrazol-4-yl)-1H-pyrazolo[3,4-d]pyrimidin-6-amine] | 1000 to 10000 nM | < 100 nM
19 | O=C1COCCN1c1ccc(F)c(Cn2ncc3cnc(Nc4cnn(CCO)c4)nc32)c1F [Example 293, 4-(2,4-Difluoro-3-((6-((1-(2-hydroxyethyl)-1H-pyrazol-4-yl)amino)-1H-pyrazolo[3,4-d]pyrimidin-1-yl)methyl)phenyl)morpholin-3-one] | 1000 to 10000 nM | < 100 nM
20 | COc1nn(CC(F)(F)F)cc1Nc1ncc2cnn(Cc3ccccc3C#N)c2n1 [Example 38] | ≥ 10000 nM | 100 to 1000 nM

Next, values leading:

Row | IC50 (JAK2) | IC50 (JAK3) | SMILES
21 | 1000 to 10000 nM | < 100 nM | Cn1cc(Nc2ncc3cnn(Cc4ccccc4Cl)c3n2)cn1 [Example 27, 1-(2-Chlorobenzyl)-N-(1-methyl-1H-pyrazol-4-yl)-1H-pyrazolo[3,4-d]pyrimidin-6-amine]
22 | 1000 to 10000 nM | < 100 nM | Cn1cc(Nc2ncc3cnn(Cc4ccccc4OCCO)c3n2)cn1 [Example 168, 2-(2-((6-((1-Methyl-1H-pyrazol-4-yl)amino)-1H-pyrazolo[3,4-d]pyrimidin-1-yl)methyl)phenoxy)ethanol]
23 | 100 to 1000 nM | < 100 nM | Cn1cc(Nc2ncc3cnn(-c4ccc5c(c4)NC(=O)CO5)c3n2)cn1 [Example 219, 6-(6-((1-Methyl-1H-pyrazol-4-yl)amino)-1H-pyrazolo[3,4-d]pyrimidin-1-yl)-2H-benzo[b][1,4]oxazin-3(4H)-one]
24 | 100 to 1000 nM | < 100 nM | CNC(=O)c1cc(Nc2ncc3cnn(Cc4ccccc4F)c3n2)cn1C [Example 242, 4-((1-(2-Fluorobenzyl)-1H-pyrazolo[3,4-d]pyrimidin-6-yl)amino)-N,1-dimethyl-1H-pyrrole-2-carboxamide]
25 | 100 to 1000 nM | < 100 nM | Fc1ccc(F)c(Cn2ncc3cnc(Nc4cnn(CC(F)F)c4)nc32)c1F [Example 157, N-(1-(2,2-Difluoroethyl)-1H-pyrazol-4-yl)-1-(2,3,6-trifluorobenzyl)-1H-pyrazolo[3,4-d]pyrimidin-6-amine]
26 | < 100 nM | < 100 nM | Cn1cc(Nc2ncc3cnn(Cc4cc(F)ccc4F)c3n2)cn1 [Example 30, 1-(2,5-Difluorobenzyl)-N-(1-methyl-1H-pyrazol-4-yl)-1H-pyrazolo[3,4-d]pyrimidin-6-amine]
27 | 100 to 1000 nM | < 100 nM | Cn1cc(Nc2ncc3cnn(-c4ccc(NS(C)(=O)=O)cc4)c3n2)cn1 [Example 18, N-(4-(6-(1-Methyl-1H-pyrazol-4-ylamino)-1H-pyrazolo[3,4-d]pyrimidin-1-yl)phenyl)methanesulfonamide]
28 | < 100 nM | < 100 nM | Cn1cc(Nc2ncc3cnn(Cc4cc(F)cc(F)c4F)c3n2)cn1 [Example 158, N-(1-Methyl-1H-pyrazol-4-yl)-1-(2,3,5-trifluorobenzyl)-1H-pyrazolo[3,4-d]pyrimidin-6-amine]
29 | 100 to 1000 nM | < 100 nM | NS(=O)(=O)c1ccc(-n2ncc3cnc(Nc4cnn(CCO)c4)nc32)cc1 [Example 121, 4-(6-((1-(2-Hydroxyethyl)-1H-pyrazol-4-yl)amino)-1H-pyrazolo[3,4-d]pyrimidin-1-yl)benzenesulfonamide]
30 | 100 to 1000 nM | < 100 nM | Cn1cc(Nc2ncc3cnn(Cc4cccc(Cl)c4)c3n2)cn1 [Example 70, 1-(3-Chlorobenzyl)-N-(1-methyl-1H-pyrazol-4-yl)-1H-pyrazolo[3,4-d]pyrimidin-6-amine]
31 | 100 to 1000 nM | < 100 nM | N#Cc1ccccc1Cn1ncc2cnc(Nc3cn[nH]c3)nc21 [Example 4, 2-((6-(1H-Pyrazol-4-ylamino)-1H-pyrazolo[3,4-d]pyrimidin-1-yl)methyl)benzonitrile]
